Assays:
[1] = target: T1, Mitogen-activated protein kinase kinase kinase kinase 2 (Homo sapiens, UniProt Q12851); assay: Binding affinity to human wild type GCK (M1 to G318 residues) expressed in mammalian expression system by KINOMEScan assay
T1 sequence (Q12851 whole entry): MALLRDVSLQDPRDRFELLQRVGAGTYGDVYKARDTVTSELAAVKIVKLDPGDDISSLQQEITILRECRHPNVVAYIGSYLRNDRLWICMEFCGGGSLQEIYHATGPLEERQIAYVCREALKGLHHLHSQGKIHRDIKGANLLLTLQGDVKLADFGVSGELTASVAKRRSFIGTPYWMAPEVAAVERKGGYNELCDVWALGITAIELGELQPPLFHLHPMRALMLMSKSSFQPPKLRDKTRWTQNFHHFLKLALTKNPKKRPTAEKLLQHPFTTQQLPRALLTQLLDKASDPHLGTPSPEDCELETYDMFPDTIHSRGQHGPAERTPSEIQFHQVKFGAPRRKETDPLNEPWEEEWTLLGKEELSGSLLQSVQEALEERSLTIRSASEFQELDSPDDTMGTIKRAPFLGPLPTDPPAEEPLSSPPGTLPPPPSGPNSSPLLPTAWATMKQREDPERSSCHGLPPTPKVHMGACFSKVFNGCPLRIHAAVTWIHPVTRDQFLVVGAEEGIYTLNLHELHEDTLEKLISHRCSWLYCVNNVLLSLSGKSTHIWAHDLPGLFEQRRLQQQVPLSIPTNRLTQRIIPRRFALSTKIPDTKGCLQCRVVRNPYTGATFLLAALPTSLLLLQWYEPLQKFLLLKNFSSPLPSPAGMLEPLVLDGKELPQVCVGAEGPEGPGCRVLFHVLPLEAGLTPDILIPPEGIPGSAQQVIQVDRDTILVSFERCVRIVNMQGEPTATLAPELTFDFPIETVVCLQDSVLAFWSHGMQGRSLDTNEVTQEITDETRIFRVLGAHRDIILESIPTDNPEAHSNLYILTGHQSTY

[2] = target: T2, Mitogen-activated protein kinase kinase kinase kinase 2 (Homo sapiens) (UniProt Q12851); assay: Inhibition of human wild type GCK (M1 to G318 residues) expressed in mammalian expression system at 1 uM by KINOMEScan assay relative to control
T2 sequence (whole entry): T1 sequence (Q12851 whole entry)

[3] = target: Tyrosine-protein kinase SYK (Homo sapiens) (UniProt P43405); assay: Inhibition of human wild type partial length SYK (D354 to N635 residues) expressed in bacterial expression system at 1 uM by KINOMEScan assay relative to control

Row | Kd [1] [µM] | inhibition [2] [%] | inhibition [3] [%] | SMILES
1 | 0.049 | 94.3 | 24 | NC(=O)c1cccnc1Nc1nc(-c2ccc3c(c2)OCO3)cc2nccn12
2 | 0.1 | 94.7 | 11 | Cc1ccccc1-c1cc2nccn2c(Nc2ncccc2C(N)=O)n1
3 | 0.22 | 84 | 5 | COc1ccc(-c2cccc(-c3cc4nccn4c(Nc4ncccc4C(N)=O)n3)c2)cc1
4 | – | 100 | 61 | COc1ccccc1-c1cc2nccn2c(Nc2ncccc2C(N)=O)n1
5 | – | 1 | 0 | CNC(=O)c1cccnc1Nc1nc(-c2ccc(OC)cc2)cc2nccn12
6 | 0.059 | 97.2 | 37 | COc1cccc(-c2cc3nccn3c(Nc3ncccc3C(N)=O)n2)c1
7 | – | 99.5 | 73 | NC(=O)c1cccnc1Nc1nc(-c2ccccc2)cc2nccn12
8 | – | 29 | 1 | CNC(=O)c1cccnc1Nc1cc(-c2ccccc2)cc2[nH]ccc12
9 | – | 99.2 | 58 | Cc1ccc(-c2cc3nccn3c(Nc3ncccc3C(N)=O)n2)cc1
10 | – | 29 | 1 | CCC(C)NC(=O)c1cccnc1Nc1nc(-c2ccccc2)cc2nccn12 (stereo not given)
11 | – | 2 | 0 | CNC(=O)c1cccnc1Nc1cc(-c2ccc(OC)cc2)cc2[nH]ccc12
12 | – | 58 | 10 | CN(C)C(=O)c1cccnc1Nc1nc(-c2ccccc2)cc2nccn12
13 | – | 100 | 80 | COc1ccc(-c2cc3nccn3c(Nc3ncccc3C(N)=O)n2)c(OC)c1
14 | – | 99.1 | 59 | COc1ccc(-c2cc3nccn3c(Nc3ncccc3C(N)=O)n2)cc1
15 | – | 20 | 19 | CCNC(=O)c1cccnc1Nc1nc(-c2ccccc2)cc2nccn12
16 | – | 100 | 80 | COc1cc(OC)cc(-c2cc3nccn3c(Nc3ncccc3C(N)=O)n2)c1
17 | – | 0 | 0 | CC(C)NC(=O)c1cccnc1Nc1nc(-c2ccccc2)cc2nccn12
18 | – | 0 | 0 | CNC(=O)c1cccnc1Nc1nc(-c2ccc(OC)c(OC)c2)cc2nccn12
19 | – | 8 | 8 | CCCCNC(=O)c1cccnc1Nc1nc(-c2ccccc2)cc2nccn12
20 | – | 2 | 0 | O=C(NCc1ccccc1)c1cccnc1Nc1nc(-c2ccccc2)cc2nccn12
21 | – | 100 | 85 | COc1ccc(-c2cc3nccn3c(Nc3ncccc3C(N)=O)n2)cc1OC
22 | – | 1 | 9 | CNC(=O)c1cccnc1Nc1nc(-c2ccc3c(c2)OCO3)cc2nccn12
23 | – | 86 | 51 | CCCOc1ccc(-c2cc3nccn3c(Nc3ncccc3C(N)=O)n2)cc1
24 | – | 47 | 4 | CCCCOc1ccc(-c2cc3nccn3c(Nc3ncccc3C(N)=O)n2)cc1
25 | – | 16 | 5 | CCCNC(=O)c1cccnc1Nc1nc(-c2ccccc2)cc2nccn12
26 | – | 24 | 30 | CNC(=O)c1cccnc1Nc1nc(-c2ccccc2)cc2nccn12
27 | – | 0 | 1 | CNC(=O)c1cccnc1Nc1nc(-c2cccc(OC)c2)cc2nccn12
28 | – | 100 | 74 | Cc1cccc(-c2cc3nccn3c(Nc3ncccc3C(N)=O)n2)c1

Reference: ChEMBL document CHEMBL4038294, “Divergent synthesis of kinase inhibitor derivatives, leading to discovery of selective Gck inhibitors” (Bioorg Med Chem Lett, 2017)
